{
  "source": "patent US20220054478A1",
  "about": "“MINIMIZATION OF SYSTEMIC INFLAMMATION” (Ascendis Pharma Oncology Division A/S, priority 2019, published 2022)",
  "set-up": "species or system WISTAR rats",
  "conditions": "rat, in vivo, sc, 25 ug",
  "from_the_text": "Hydrogels were suspended (ca. 6% wt/v) PBST buffer at pH 7.4. […] Blood samples were withdrawn and used for plasma generation over the course of 28 d. […] Plasma concentration profiles were generated and analyzed with Phoenix WinNonlin software (Certara, Princeton, N.J., USA).",
  "data": [
    {"substance": "Resiquimod [Compound 4]", "values": [
      {"measurement": "t1/2 (biphasic), first phase", "value": 1.5, "unit": "h"},
      {"measurement": "t1/2 (biphasic), second phase", "value": 10, "unit": "h"}
    ]}
  ]
}
